Data on two compounds can be found in patent US7084301B2 (Ranbaxy Laboratories Limited, priority 2003, dated 2006).

One experiment has as its target T1, human α1B-adrenoceptors (Homo sapiens, UniProt P35368).
T1 sequence (P35368 1-520): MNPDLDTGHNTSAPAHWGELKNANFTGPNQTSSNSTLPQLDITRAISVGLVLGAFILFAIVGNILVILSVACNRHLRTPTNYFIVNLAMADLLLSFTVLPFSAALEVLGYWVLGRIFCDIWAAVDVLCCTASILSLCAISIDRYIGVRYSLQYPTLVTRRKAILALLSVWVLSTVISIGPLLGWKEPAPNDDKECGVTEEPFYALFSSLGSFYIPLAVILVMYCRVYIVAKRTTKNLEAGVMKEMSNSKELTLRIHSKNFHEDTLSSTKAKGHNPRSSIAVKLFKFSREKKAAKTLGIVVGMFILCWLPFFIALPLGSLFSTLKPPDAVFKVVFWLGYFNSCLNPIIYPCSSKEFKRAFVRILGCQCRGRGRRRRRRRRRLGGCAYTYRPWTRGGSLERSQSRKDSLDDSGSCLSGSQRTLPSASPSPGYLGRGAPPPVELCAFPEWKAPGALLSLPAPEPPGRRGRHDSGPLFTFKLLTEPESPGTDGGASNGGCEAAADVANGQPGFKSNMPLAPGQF
Nature of the experiment: Radioligand-receptor binding assay, human recombinant α1B-adrenoceptor, [3H]prazosin. The method, then: (§1) Chinese hamster ovary (CHO) cells which had been stably transfected with human α1A, α1B, or α1D-adrenoceptors (Keffel et al., Biochem. Biophys. Res. Commun., 2000, 272, 906–11) were cultured in an atmosphere of 5% CO2/95% air at 37° C. in F-12 HAM medium supplemented with 10% heat-inactivated fetal calf serum, 1 mM glutamine, 100 U/ml penicillin and 0.1 mg/ml streptomycin. Selection pressure was maintained by regular addition of geneticin to the culture medium.
(§2) Competitive radioligand binding to the cloned subtypes of […] was performed using [^3H]prazosin as the radioligand as described by Michel et al, Br. J. Pharmacol., 98, 883–889 (1989) with minor modifications. Experiments were performed in binding buffer consisting of 50 mM Tris, 10 mM MgCl2 and 0.5 mM EDTA at pH 7.5 in a total assay volume of 1000 μl. The protein content typically was 40–60 μg/assay. The mixtures were incubated at 25° C. for 45 minutes. Incubations were terminated by rapid vacuum filtration over GF/C filters followed by two washes of the filters each with 10 ml ice-cold incubation buffer. Non-specific binding was defined as binding in the presence of 10 μM phentolamine.
(§3) The IC50 & Kd were estimated by using the non-linear curve fitting program using G Pad Prism software. The value of inhibition constant Ki was calculated from competitive binding studies by using Cheng & Prusoff equation [Cheng & Prusoff, Biochem. Pharmacol., 22, 3099–3108 (1973)], Ki=IC50/(1+L/Kd), where L is the concentration of [^3H] prazosin used in the particular experiment. Kd of [^3H] prazosin was determined from saturation binding studies. The values were tabulated as mean±SEM of pKi values, where pKi is the −log of Ki value.

The target in a further experiment is T2, human α1D-adrenoceptors (Homo sapiens, UniProt P25100).
T2 sequence (P25100 1-572): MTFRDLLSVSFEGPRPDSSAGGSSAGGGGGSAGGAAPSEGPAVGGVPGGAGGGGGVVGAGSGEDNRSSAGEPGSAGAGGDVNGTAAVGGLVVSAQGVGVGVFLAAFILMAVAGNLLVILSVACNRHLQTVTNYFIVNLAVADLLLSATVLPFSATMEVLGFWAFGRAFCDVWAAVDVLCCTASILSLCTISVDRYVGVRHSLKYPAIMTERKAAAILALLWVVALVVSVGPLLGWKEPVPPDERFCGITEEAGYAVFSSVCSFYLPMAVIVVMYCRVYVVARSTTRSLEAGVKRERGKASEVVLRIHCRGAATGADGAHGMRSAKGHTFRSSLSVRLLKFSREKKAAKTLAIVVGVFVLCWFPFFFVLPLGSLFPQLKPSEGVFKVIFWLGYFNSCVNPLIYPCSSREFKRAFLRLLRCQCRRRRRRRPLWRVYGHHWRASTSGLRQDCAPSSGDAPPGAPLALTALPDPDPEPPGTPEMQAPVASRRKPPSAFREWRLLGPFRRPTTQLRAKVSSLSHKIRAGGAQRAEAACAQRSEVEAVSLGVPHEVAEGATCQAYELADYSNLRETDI
Kind of experiment: Radioligand-receptor binding assay, human recombinant α1D-adrenoceptor, [3H]prazosin. The method, then: as §1, §2, §3

The target of another experiment is T3, human α1A-adrenoceptors (Homo sapiens, UniProt P35348).
T3 sequence (P35348 1-466): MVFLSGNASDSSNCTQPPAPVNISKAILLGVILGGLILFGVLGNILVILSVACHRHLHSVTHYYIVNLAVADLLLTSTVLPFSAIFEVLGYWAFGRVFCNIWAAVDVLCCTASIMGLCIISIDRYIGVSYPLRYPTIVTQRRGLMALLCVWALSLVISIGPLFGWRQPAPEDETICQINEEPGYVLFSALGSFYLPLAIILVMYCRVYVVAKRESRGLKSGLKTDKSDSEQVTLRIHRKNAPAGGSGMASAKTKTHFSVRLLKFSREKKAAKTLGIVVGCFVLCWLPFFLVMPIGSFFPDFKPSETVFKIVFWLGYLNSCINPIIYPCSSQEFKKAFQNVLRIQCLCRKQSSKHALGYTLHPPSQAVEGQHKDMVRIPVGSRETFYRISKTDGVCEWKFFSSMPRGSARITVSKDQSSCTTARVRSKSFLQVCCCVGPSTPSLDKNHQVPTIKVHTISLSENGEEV
Kind of experiment: Radioligand-receptor binding assay, human recombinant α1A-adrenoceptor, [3H]prazosin. To be noted: human recombinant receptors in CHO cells, mean ± SEM; read-out: pKi α1A (converted). As to the method:
as §1, §2, §3

`CCOc1ccccc1OCCNC(C)Cc1ccc(O)c(S(N)(=O)=O)c1` (racemic) [Racemate]: the Ki is 1.1 nM at human α1B-adrenoceptors, 0.214 nM on human α1D-adrenoceptors and 0.0832 nM on human α1A-adrenoceptors.
Taken in the same sequence, the figures for `CCOc1ccccc1OCCN[C@@H](C)Cc1ccc(O)c(S(N)(=O)=O)c1` [(S)-isomer] were 21.9 nM, 7.94 nM and 2.24 nM.
